Measurements published in patent publication US20150290192A1, “INHIBITORS OF BRUTON'S TYROSINE KINASE” (HOFFMANN-LA ROCHE INC., priority 2012, published 2015).
Marks after values point to notes of the source that are not given here.

Experiments:
[1] = Pharmacokinetics in cynomolgus monkey; format: in vivo; details: Cyno
[2] = system: OVA sensitized and challenged mice, airway eosinophilia; assay: Ovalbumin-induced allergic airway disease: allergen-induced airway eosinophilia; format: in vivo, mouse; details: for % reduction in airway eosinophilia: Inhaled, mOVA40
Method: The mouse model of ovalbumin-induced allergic airway disease was employed to assess the effects of Compound 1 on allergen-induced bronchoconstriction and allergen-induced airway inflammation. Briefly, mice (male; BALB/c; 7-9 weeks of age) were immunized i.p. with […] of ovalbumin (OVA) in 0.2 ml of Alum (2% Al(OH)3 in water, Serva, Heidelberg, Germany) on days 0 and 14. Control animals received Alum only. On days 21-23, animals were exposed for 20 min to a nebulized (Proneb Ultra II, PARI Respiratory Equipment, Midlothian, Va.,) aerosol of 1% OVA (10 mg/ml) in phosphate-buffered saline (PBS), to establish the inflammatory process within the lung; or PBS alone as a control. For studies where intranasal dosing was used, mice were anesthetized with isoflurane and intranasally (i.n.) administered vehicle (20% propylene glycol) or Compound 1 (0.3 mg/kg) one hour prior to each aerosolized OVA challenge.
For studies using inhalation delivery, Compound 1 was micronized by a jet mill (MC One Jet Mill, Jetpharma USA Inc., South Plainfield, N.J.) and the dry powder aerosol was generated using a Wright dust feed dry powder aerosol generator. The micronized drug powder was packed into a cylindrical reservoir using a hydraulic press at approximately 1000 psi to produce compacted cakes of powder used as input by the Wright dust feed. The dust feed creates and aerosol that is passed through a sonic nozzle for de-agglomeration and into a cyclone to remove non-respirable particles and agglomerates. The cyclone output passed into the TSE nose-only rodent exposure system. Dose groups of mice were exposed to the aerosol test atmosphere for 5, 15, or 45 minutes. […] The particle size distribution for each exposure was evaluated by collecting aerosol samples with an eight stage cascade impactor. […] Impactor data were mathematically evaluated to determine the Mass Median Aerodynamic Diameter (MMAD) and Geometric Standard Deviation (GSD) of 6-tert-Butyl-2-[2-hydroxymethyl-3-(5-{5-[(2-methoxy-ethylamino)-methyl]-pyridin-2-ylamino}-1-methyl-6-oxo-1,6-dihydro-pyridin-3-yl)-phenyl]-3,4-dihydro-2H-isoquinolin-1-one using graphical analysis of an assumed lognormal distribution. The estimated deposited dose of Compound 1 was calculated using a minute volume for the mouse of 0.026 liters per minute and the pulmonary deposition fraction was determined from the MMAD. […]
To study the effects of Compound 1 on airway inflammation, after the three 1% OVA challenges, a final OVA challenge was given as an aerosol solution of 5% OVA in PBS (50 mg/ml) or PBS alone for 20 min. […] The lungs were lavaged and airway inflammation was evaluated as previously described by performing total and differential cell counts [Harris et al., 2012, Mucosal Immunology]. […]

[3] = target: Bruton's Tyrosine Kinase (Homo sapiens, UniProt Q06187); assay: Bruton's Tyrosine Kinase (BTK) inhibition TR-FRET competition assay; format: binding
Chain of Bruton's Tyrosine Kinase (Q06187 whole entry): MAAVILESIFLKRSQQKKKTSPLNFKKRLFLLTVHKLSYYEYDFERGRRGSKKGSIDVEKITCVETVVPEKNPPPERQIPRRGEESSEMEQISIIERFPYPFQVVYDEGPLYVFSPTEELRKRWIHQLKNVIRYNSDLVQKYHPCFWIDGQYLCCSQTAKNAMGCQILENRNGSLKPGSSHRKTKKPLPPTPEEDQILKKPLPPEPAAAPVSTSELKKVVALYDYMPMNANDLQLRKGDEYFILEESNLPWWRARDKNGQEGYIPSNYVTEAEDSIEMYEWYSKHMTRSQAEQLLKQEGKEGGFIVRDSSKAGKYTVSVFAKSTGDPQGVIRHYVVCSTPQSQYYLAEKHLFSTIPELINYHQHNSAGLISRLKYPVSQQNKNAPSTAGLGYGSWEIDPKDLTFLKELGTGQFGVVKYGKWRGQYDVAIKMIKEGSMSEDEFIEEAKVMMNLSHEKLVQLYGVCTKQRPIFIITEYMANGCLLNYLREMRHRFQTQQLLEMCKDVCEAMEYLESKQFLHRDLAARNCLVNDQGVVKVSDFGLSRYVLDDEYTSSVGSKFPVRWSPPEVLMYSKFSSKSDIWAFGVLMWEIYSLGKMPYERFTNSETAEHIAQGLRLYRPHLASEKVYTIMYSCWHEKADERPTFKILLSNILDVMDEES
Method: This BTK competition assay measures compound potency (IC50) for the inactivated state of Bruton's Tyrosine Kinase using FRET (Firster/Fluorescence Resonance Energy Transfer) technology. The BTK-Eu complex was incubated on ice one hour prior to use at a starting concentration of 50 nM BTK-Bioease™: 10 nM Eu-streptavidin (Perkin-Elmer Catalog#AD0062). The assay buffer consisted of 20 mM HEPES (pH 7.15), 0.1 mM DTT, 10 mM MgCl2, 0.5 mg/ml BSA with 3% Kinase Stabilizer (Fremont Biosolutions, Catalog #STB-K02). After 1 h, the reaction mixture from above was diluted 10 fold in assay buffer to make 5 nM BTK: InM Eu-Streptavidin complex (donor fluorophore). 18 l of a mixture of 0.11 nM BTK-Eu and 0.11 nM Kinase Tracer 178 (Invitrogen, Catalog #PV5593,) with BTK-Eu alone as no negative control, was then dispensed into 384-well flat bottom plates (Greiner, 784076). Compounds to be tested in assay were prepared as 10× concentrations and serial dilution in half-log increments was performed in DMSO so as to generate 10 point curves. To initiate the FRET reaction, compounds prepared as 10× stock in DMSO was added to the plates and the plates were incubated 18-24 h at 14° C.
After the incubation the plates were read on a BMG Pherastar Fluorescent plate reader (or equivalent) and used to measure the emission energy from the europium donor fluorophore (620 nm emission) and the FRET (665 nm emission). The negative control well values were averaged to obtain the mean minimum. The positive “no inhibitor” control wells were averaged to obtain the mean maximum. Percent of maximal FRET was calculated using following equation:
% max FRET=100×[(FSRcmpd−FSRmean min)/(FSRmean max−FSRmean min)]
where FSR=FRET Signal ratio. % Max FRET curves were plotted in Activity Base (Excel) and the IC50(%), hill slope, z′ and % CV were determined. The mean IC50 and standard deviation will be derived from duplicate curves (singlet inhibition curves from two independent dilutions) using Microsoft Excel.

CL ([1]; 0.3 mg/kg (iv)): high | Oral Bioavailability ([1]; 0.3 (iv), 0.9 (po) mg/kg): low | bioavailability ([1]; cynomolgus monkey, plasma, 0.9 mg/kg, 0.3 (iv), 0.9 (po) mg/kg): 8% | clearance ([1]; cynomolgus monkey, plasma, 0.3 mg/kg (iv)): 38.9 mL/min/kg | Btk inhibitor potency (FRET) [3]: very potent | IC50 ([3]; inactivated state of BTK, 18-24 h at 14° C.): 0.4 nM
SMILES: CN1CCC(c2ccc(Nc3cc(-c4ccnc(-n5ncc6cc(C(C)(C)C)cc(F)c6c5=O)c4CO)nn(C)c3=O)nc2)CC1 [Compound 1, 6-tert-Butyl-8-fluoro-2-{3-hydroxymethyl-4-[1-methyl-5-(1′-methyl-1′,2′,3′,4′,5′,6′-hexahydro-[3,4′]bipyridinyl-6-ylamino)-6-oxo-1,6-dihydro-pyridazin-3-yl]-pyridin-2-yl}-2H-phthalazin-1-one]
% reduction in airway eosinophilia ([2]; delivered dose 0.09 mg/kg, deposited dose .003 mg/kg): 82* % | % reduction in airway eosinophilia ([2]; delivered dose 0.27 mg/kg, deposited dose .010 mg/kg): 83* % | % reduction in airway eosinophilia ([2]; delivered dose 0.81 mg/kg, deposited dose .030 mg/kg): 84* % | OVA-induced increase in the numbers of eosinophils recovered in the lavage fluid ([2]; dry powder formulation by inhalation): effectively inhibited
